Patent CN111729074A, “多肽rl25在制备抗肿瘤药物中的应用” (Zhuhai Campus Of Zunyi Medical University, priority 2020, dated 2020)

What was measured:
normal cells (正常细胞) = conditions: background statement on LL37; cited from earlier work
HK2 cells (人肾小管上皮细胞) = experiment: MTT assay of cell proliferation, normal cells HK2 (24 h); format: cell-based, human; conditions: for toxicity / side effect on HK2: in words; for toxicity to normal cells: summary statement
tumour (肿瘤) = conditions: background statement on LL37; cited from earlier work
[1] = test system: 3 tumour cells HCT-8, SKVO3, MCF-7 (3种肿瘤细胞); experiment: MTT assay of cell proliferation, tumour cells (24 h); format: cell-based; conditions: for inhibitory effect on the 3 tumour cells: HCT-8, SKVO3, MCF-7, 24 h, in words (IC50 table is a picture); for killing effect on / toxicity to various tumour cells: summary statement
HCT-8 cells [2] = experiment: MTT assay of cell proliferation, HCT-8 (therapeutic index); format: cell-based, human; conditions: in words
HCT-8 cells [3] = experiment: HCT-8 apoptosis, Annexin V-FITC/PI flow cytometry (24 h); format: cell-based, human; conditions: for concentration dependence of apoptosis / average apoptosis rate / early apoptosis: HCT-8, 24 h; for early apoptosis: versus control
[4] = Earlier antibacterial test; conditions: initial tests
HCT-8 cells [5] = experiment: HCT-8 mitochondrial membrane potential, JC-1 flow cytometry (24 h); format: cell-based, human; conditions: HCT-8, 24 h; for mitochondrial membrane potential: with rising concentration (0-4 μM), versus control, P<0.01
HCT-8 cells [6] = experiment: ROS in HCT-8 cells, DCFH-DA flow cytometry (24 h); format: cell-based, human; conditions: HCT-8, 24 h; for ROS content compared with control: P>0.05

LL37: LL37是hCAP-18蛋白中含有37个氨基酸的C端 [reference compound]
toxicity to normal cells (normal cells (正常细胞)): 对正常细胞的毒性较大 | toxicity / side effect on HK2 (HK2 cells (人肾小管上皮细胞); HK2, 24 h): 毒副作用也很明显 | antitumour effect (tumour (肿瘤)): 良好的抗肿瘤效应 | inhibitory effect on the 3 tumour cells [1]: 抑制效果均表现较好

RL25: 氨基酸序列为:RLNRLFRKIRQVIRKFEKGIKEKSK
therapeutic index, IC50(HK2)/IC50(HCT-8) (HCT-8 cells [2]): 较高 | toxicity / side effect on HK2 (HK2 cells (人肾小管上皮细胞); HK2, 24 h): 对正常细胞的毒性小 | toxicity to normal cells compared with LL37 (HK2 cells (人肾小管上皮细胞); HK2, 24 h, versus positive drug LL37): 毒性明显更小 | toxicity to normal cells (HK2 cells (人肾小管上皮细胞)): 毒性轻微 | concentration dependence of apoptosis (HCT-8 cells [3]): 明显的浓度依赖性 | average apoptosis rate (HCT-8 cells [3]; 1 μM): 29.56% | average apoptosis rate (HCT-8 cells [3]; 2 μM): 37.44% | average apoptosis rate (HCT-8 cells [3]; 4 μM): 55.15% | early apoptosis (HCT-8 cells [3]): 早期凋亡细胞的数目逐渐增加 | killing effect compared with SE37 (HCT-8 cells [3]; HCT-8, 4 μM RL25 versus 6 μM SE37): 强于浓度为6μM的SE37 | antibacterial performance [4]: 较好的抑菌性能 | mitochondrial membrane potential (HCT-8 cells [5]): 逐渐降低 | ROS content, trend (HCT-8 cells [6]; 0-4 μM): 先升高后降低 | ROS content compared with control (HCT-8 cells [6]; 4 μM): 无明显差异 | ROS, mean fluorescence intensity (peak) (HCT-8 cells [6]; peak at 1 μM, versus control P<0.01): 4670±91.804 | therapeutic index, IC50(HK2)/IC50(tumour cells) ([1]; 3 tumour cells, in words): 较高 | therapeutic index compared with SE37 ([1]; 3 tumour cells, versus SE37): 均高于SE37的治疗指数 | inhibitory effect on tumour cells compared with LL37 ([1]; 3 tumour cells, versus positive drug LL37): 相近或更好 | inhibitory effect on the 3 tumour cells [1]: 很好的抑制效果 | killing effect on / toxicity to various tumour cells [1]: 良好的杀伤效果

SE37: 抗菌肽SE37(其氨基酸序列为:SETRPVLNRLFDKIRQVIRKFEKGIKEKSKRFFDGLL) [reference compound]
toxicity / side effect on HK2 (HK2 cells (人肾小管上皮细胞); HK2, 24 h): 毒副作用也很明显 | toxicity to normal cells (HK2 cells (人肾小管上皮细胞)): 毒性均较大 | concentration dependence of apoptosis (HCT-8 cells [3]): 一定的浓度依赖性 | average apoptosis rate (HCT-8 cells [3]; 3 μM): 27.39% | average apoptosis rate (HCT-8 cells [3]; 6 μM): 36.28% | early apoptosis (HCT-8 cells [3]): 出现明显的早期细胞凋亡 | FL1 channel fluorescence (HCT-8 cells [5]; 0-4 μM): 荧光增多 | FL2 channel fluorescence (HCT-8 cells [5]; 0-4 μM): 荧光减少 | FL1 channel fluorescence signal (HCT-8 cells [5]; 4 μM versus 2 μM): 并未明显增加 | mitochondrial membrane potential (HCT-8 cells [5]): 明显降低 | ROS content, trend (HCT-8 cells [6]; 0-8 μM): 先升高后降低 | ROS content compared with control (HCT-8 cells [6]; 8 μM): 已无明显变化 | ROS, mean fluorescence intensity (peak) (HCT-8 cells [6]; peak at 2 μM): 3127.753±96.501 | inhibitory effect on the 3 tumour cells [1]: 抑制效果均表现较好 | killing effect on / toxicity to various tumour cells [1]: 毒性均较大
